Patent US5424286A (priority 1993, dated 1995)

How the values were obtained:
[1] = system: insulin secretion; experiment: Alternating bolus injections of GLP-1 and exendin-4 via left atrial catheter in anesthetized dogs; conditions: after normalization of hyperglycemia and in euglycemic state
[2] = cited from earlier work

Row | Molecule | hypoglycemia [1] | meal-related increases in blood glucose concentration and plasma insulin and glucagon ([2]; normal subjects, infusion) | lowering of the insulin required ([2]; patients with IDDM) | reduction of the requirement for insulin ([2]; patients with NIDDM) [fold]
1 | CC[C@H](C)[C@H](NC(=O)[C@H](Cc1ccccc1)NC(=O)[C@H](CCC(=O)O)NC(=O)[C@H](CCCCN)NC(=O)[C@H](C)NC(=O)[C@H](C)NC(=O)[C@H](CCC(N)=O)NC(=O)CNC(=O)[C@H](CCC(=O)O)NC(=O)[C@H](CC(C)C)NC(=O)[C@H](Cc1ccc(O)cc1)NC(=O)[C@H](CO)NC(=O)[C@H](CO)NC(=O)[C@@H](NC(=O)[C@H](CC(=O)O)NC(=O)[C@H](CO)NC(=O)[C@@H](NC(=O)[C@H](Cc1ccccc1)NC(=O)[C@@H](NC(=O)CNC(=O)[C@H](CCC(=O)O)NC(=O)[C@H](C)NC(=O)[C@@H](N)Cc1c[nH]cn1)[C@@H](C)O)[C@@H](C)O)C(C)C)C(=O)N[C@@H](C)C(=O)N[C@@H](Cc1c[nH]c2ccccc12)C(=O)N[C@@H](CC(C)C)C(=O)N[C@H](C(=O)N[C@@H](CCCCN)C(=O)NCC(=O)N[C@@H](CCCNC(=N)N)C(N)=O)C(C)C [GLP-1, glucagon-like peptide-1] | hypoglycemia does not occur |  |  | 
2 | glucagon-like insulinotropic peptide [GLIP] |  | significantly lowered | one half | 8
